Test results from patent US12589156B2, “Benzimidazole and benzimidazolone based protac compounds for the targeted degradation of leucine rich repeat kinase 2 (LRRK2)” (Arvinas Operations, Inc., priority 2023, dated 2026).

Target: T1, WT LRRK2 (Homo sapiens, UniProt Q5S007)
T1 construct: endogenous in cells; host or cells: HEK293 (endogenous LRRK2 gene knock-in tagged with HiBit; stably expressing CMV-driven firefly luciferase)
Assay: LRRK2 HiBit degradation assay (Nano-Glo Dual Luciferase) in HEK293 cells with HiBit-tagged endogenous LRRK2
Format: cell-based
Conditions: for Dmax: maximal degradation
From the text: Biological Assays Exemplary Assay for Testing LRRK2 Degradation Driven by Exemplary Hetero-Bifunctional Compounds Designed to Target LRRK2
The assay measures the degradation of LRRK2 in cells where the C-terminus (3′) of the endogenous gene has been tagged with a HiBit sequence in HEK293 cells. The cells also express firefly lucisferase, expressed from a Cytomegalovirus promoter and introduced into the HiBit tagged cells and stably expressed. The Nano-Glo® Dual Luciferase Reporter Assay System (Promega™, Madison, WI) was utilized.
Day 1—Preparation of Compound and Assay Plates. Two sets of plates were prepared: a triplicate set for the HiBit assay in white 384-well plates and a triplicate set of plate in black 384-well plates for the Alamar Blue cell viability assay. Briefly, the growth media (DMEM+Glutamax-10% fetal bovine serum-1% Penicillin-Streptomicin) from two T128 flasks was aspirated from the flasks. Cells were washed with Dulbecco's Phosphate Buffered Saline (dPBS) and aspirated. Trypsin (3 mL per flask) was added and the flasks were incubated for 2-3 minutes.
Ten mL of OptiMEM—10% fetal bovine-1% penicillin-streptomycin (hereinafter, “OptiMEM media”) was added to the flask and the cells and transferred to a 50 ml conical tube. A cell count (25 ul of cell into Effendorf vial+25 ul of Trypan Blue Stain) was performed and the cell density adjusted to 15,000 cell/45 μl/well (3.33×10^5/mL) in OptiMEM media.
Forty-five microliters of the cell suspension (15,000 cells) was aliquoted to each well of the white 384-well plate. The plates incubated at room temperature for 10 minutes before being placed in the 37° C.+5% CO2 incubator overnight
Day 2—Compound Treatment. Exemplary compounds were prepared at a 1 mM starting concentration and 1:3 serial dilution for 11 points CRC prepared and stored in the freezer. The Master Compound Plate was thawed overnight at room temperature. DMSO (20 μL) was added into column 24 of the Master Compound Plate for negative control and 20 μL of 300 μM of Compound 4 in column 23 as positive control.
Intermediate Compound Plate with 4% DMSO in OptiMEM Media. DMSO was added to warm OptiMEM media to achieve a 4% DMSO solution (approximately 50 mL/plate). One-hundred microliters of the OptiMEM-4% DMSO was aliquoted to each well of 384-Well Deep Well Microplates.
The Master Compound Plate and the Intermediate Compound Plate were spun down.
One microliter of compound from the Master Compound Plate was transferred into the Intermediate plate (a 1:100 dilution). The diluted mixture was mixed and 5 μL transferred into the assay plate (a 1:10 dilution) for the final starting concentration of 1 μM. The Treated Assay plates were incubated for 24 hours at 37° C.+5% CO2. The Master Compound Plate was sealed and store at room temperature for a second run that was performed within a week.
One set of white assay plates was warmed to room temperature (45 minute).
The One Glo luciferase mixture was prepared. The media from white 384-well assay plates was aspirated. Twenty-five μL of the One Glo luciferase mixture was added to each well of the assay plates. The plates were incubated on the bench (room temperature) for 45 minutes, including 10 minutes of shaking at 700 rpm. The luminescence of each plate was read on a plate reader.
1:100 DLR substrate and 1:100 LgBiT Protein dilution were added to the Promega Stop and Glo buffer and mixed just before addition to assay plates. Twenty-five microliters of Stop and Glo mixture was added to each well. Assay plates incubated for at least 45 minutes, including 10 minutes of shaking at 700 rpm. The luminescence of each plate was read on a plate reader.
Analysis of LRRK2 HiBit Screening assays. As mentioned above, plates were run in triplicate and the assay repeated twice (total of 6 replicate for exemplary compounds). For each treatment, measurements were taken for firefly luciferase for cell number, cell viability (Alamar Blue), and Nanoluc for the LRRK2-HiBit quantification. […]

[1] = HEK293, Table 2, HiBit-tagged LRRK2 in HEK293 cells, 24 hours treatment
[2] = HEK293, Table 3, comparison with direct comparators
[3] = Table 2, HiBit-tagged LRRK2 in HEK293 cells, 24 hours treatment, starting concentration 1 μM
[4] = Table 3, comparison with direct comparators, HiBit-tagged LRRK2 in HEK293 cells, 24 hours treatment

T1 sequence (Q5S007 whole entry): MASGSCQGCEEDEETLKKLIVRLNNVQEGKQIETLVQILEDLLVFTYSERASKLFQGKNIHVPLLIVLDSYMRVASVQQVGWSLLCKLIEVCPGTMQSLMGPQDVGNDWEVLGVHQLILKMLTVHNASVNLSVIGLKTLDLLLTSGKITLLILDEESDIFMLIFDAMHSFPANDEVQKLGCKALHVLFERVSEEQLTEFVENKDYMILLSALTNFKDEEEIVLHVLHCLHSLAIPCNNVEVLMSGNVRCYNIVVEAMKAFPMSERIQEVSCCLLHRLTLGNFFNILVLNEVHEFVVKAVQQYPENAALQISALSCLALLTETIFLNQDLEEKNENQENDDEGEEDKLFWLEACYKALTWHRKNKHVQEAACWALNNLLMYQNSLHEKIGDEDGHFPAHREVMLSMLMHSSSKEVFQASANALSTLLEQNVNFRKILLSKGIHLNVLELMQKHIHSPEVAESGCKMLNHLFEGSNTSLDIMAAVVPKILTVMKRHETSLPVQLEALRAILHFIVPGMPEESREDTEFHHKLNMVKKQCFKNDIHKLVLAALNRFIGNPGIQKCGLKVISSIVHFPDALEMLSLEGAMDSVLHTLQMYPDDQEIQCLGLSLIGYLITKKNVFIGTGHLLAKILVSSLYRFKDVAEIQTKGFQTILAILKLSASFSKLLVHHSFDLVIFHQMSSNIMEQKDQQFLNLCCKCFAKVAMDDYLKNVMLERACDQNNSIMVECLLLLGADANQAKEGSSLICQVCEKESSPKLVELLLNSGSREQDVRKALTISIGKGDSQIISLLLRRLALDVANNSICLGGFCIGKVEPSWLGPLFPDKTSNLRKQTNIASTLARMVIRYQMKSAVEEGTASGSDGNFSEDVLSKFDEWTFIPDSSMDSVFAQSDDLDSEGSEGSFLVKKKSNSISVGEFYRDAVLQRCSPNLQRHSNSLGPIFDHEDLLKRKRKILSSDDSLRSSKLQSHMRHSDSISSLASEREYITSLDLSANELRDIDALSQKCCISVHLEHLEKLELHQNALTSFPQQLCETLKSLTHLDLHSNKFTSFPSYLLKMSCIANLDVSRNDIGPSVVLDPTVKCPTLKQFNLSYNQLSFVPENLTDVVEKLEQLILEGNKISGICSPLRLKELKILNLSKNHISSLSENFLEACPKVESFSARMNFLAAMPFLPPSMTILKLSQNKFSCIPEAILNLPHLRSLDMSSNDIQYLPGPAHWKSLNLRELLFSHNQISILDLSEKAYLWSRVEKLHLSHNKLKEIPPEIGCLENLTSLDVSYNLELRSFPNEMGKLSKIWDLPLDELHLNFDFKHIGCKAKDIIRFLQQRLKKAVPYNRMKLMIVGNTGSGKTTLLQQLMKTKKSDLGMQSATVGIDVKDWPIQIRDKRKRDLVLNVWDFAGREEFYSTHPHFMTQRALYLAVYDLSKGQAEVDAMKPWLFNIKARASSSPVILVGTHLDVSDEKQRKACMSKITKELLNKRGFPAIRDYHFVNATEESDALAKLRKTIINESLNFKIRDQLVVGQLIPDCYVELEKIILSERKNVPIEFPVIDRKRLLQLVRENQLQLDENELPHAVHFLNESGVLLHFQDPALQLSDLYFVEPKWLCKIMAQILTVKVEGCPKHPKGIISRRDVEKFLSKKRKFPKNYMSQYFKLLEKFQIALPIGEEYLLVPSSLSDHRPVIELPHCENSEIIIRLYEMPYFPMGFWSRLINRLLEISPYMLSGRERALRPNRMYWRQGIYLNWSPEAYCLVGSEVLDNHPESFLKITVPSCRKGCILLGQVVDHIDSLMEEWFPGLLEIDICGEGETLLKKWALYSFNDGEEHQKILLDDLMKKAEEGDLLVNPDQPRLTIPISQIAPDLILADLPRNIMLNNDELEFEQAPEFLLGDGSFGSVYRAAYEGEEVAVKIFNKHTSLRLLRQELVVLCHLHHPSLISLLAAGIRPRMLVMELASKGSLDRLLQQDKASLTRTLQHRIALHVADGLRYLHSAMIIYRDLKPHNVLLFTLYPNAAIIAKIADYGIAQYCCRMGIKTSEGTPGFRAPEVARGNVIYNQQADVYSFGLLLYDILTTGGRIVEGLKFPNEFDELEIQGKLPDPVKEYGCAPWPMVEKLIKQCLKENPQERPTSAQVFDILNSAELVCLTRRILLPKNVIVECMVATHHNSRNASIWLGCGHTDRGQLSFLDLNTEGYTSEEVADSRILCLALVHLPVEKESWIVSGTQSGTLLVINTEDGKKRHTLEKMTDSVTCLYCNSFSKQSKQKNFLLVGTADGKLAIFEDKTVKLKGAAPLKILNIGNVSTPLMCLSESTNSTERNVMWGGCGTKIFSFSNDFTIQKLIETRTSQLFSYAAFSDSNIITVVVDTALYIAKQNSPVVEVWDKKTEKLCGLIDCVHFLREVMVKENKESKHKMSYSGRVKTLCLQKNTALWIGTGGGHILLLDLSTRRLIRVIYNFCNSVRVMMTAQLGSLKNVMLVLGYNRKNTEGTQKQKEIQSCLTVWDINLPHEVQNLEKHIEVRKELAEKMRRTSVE

CC1(Oc2ccc3[nH]nc(-c4cc(N5CCN(C[C@H]6CC[C@H](OC7CCN(c8cc9ncn(C%10CCC(=O)NC%10=O)c9cc8F)CC7)CC6)CC5)ncn4)c3c2)CC1 (stereo partly drawn) [Compound 44, rel-3-[6-fluoro-5-(4-{[(1r,4r)-4-[(4-{6-[5-(1-methylcyclopropoxy)-1H-indazol-3-yl]pyrimidin-4-yl}piperazin-1-yl)methyl]cyclohexyl]oxy}piperidin-1-yl)-1H-1,3-benzodiazol-1-yl]piperidine-2,6-dione]
Dmax [1]: 50%
Dmax [2]: 50%
DC50 [3]: 6.3 nM
DC50 [4]: 6.3 nM

CC1(Oc2ccc3[nH]nc(-c4cc(N5CCN(C[C@H]6CC[C@H](OC7CCN(c8cc(F)c9c(c8)ncn9C8CCC(=O)NC8=O)CC7)CC6)CC5)ncn4)c3c2)CC1 (stereo partly drawn) [Compound 43, rel-3-[7-fluoro-5-(4-{[(1r,4r)-4-[(4-{6-[5-(1-methylcyclopropoxy)-1H-indazol-3-yl]pyrimidin-4-yl}piperazin-1-yl)methyl]cyclohexyl]oxy}piperidin-1-yl)-1H-1,3-benzodiazol-1-yl]piperidine-2,6-dione]
Dmax [1]: 49%
Dmax [2]: 49%
DC50 [3]: 6.2 nM
DC50 [4]: 6.2 nM

CC(C)n1c(=O)n(C2CCC(=O)NC2=O)c2ccc(N3CCC(O[C@H]4CC[C@@H](CN5CCN(c6cc(-c7n[nH]c8cnc(OC9(C)CC9)cc78)ncn6)CC5)CC4)CC3)cc21 (single isomer, unassigned) [Compound 53, rel-3-[2-oxo-3-(propan-2-yl)-5-(4-{[(1r,4r)-4-[(4-{6-[5-(1-methylcyclopropoxy)-1H-pyrazolo[3,4-c]pyridin-3-yl]pyrimidin-4-yl}piperazin-1-yl)methyl]cyclohexyl]oxy}piperidin-1-yl)-2,3-dihydro-1H-1,3-benzodiazol-1-yl]piperidine-2,6-dione]
Dmax [1]: 54%
DC50 [3]: 0.59 nM

Cn1c(=O)n(C2CCC(=O)NC2=O)c2ccc(N3CCC(CN4CCN(CC5CCN(c6cc(-c7n[nH]c8ccc(OC9(C)CC9)cc78)ncn6)CC5)CC4)CC3)cc21 (centres unmarked) [Compound 12, 3-{3-methyl-5-[4-({4-[(1-{6-[5-(1-methylcyclopropoxy)-1H-indazol-3-yl]pyrimidin-4-yl}piperidin-4-yl)methyl]piperazin-1-yl}methyl)piperidin-1-yl]-2-oxo-2,3-dihydro-1H-1,3-benzodiazol-1-yl}piperidine-2,6-dione]
Dmax [1]: 64%
Dmax [2]: 64%
DC50 [3]: 0.17 nM
DC50 [4]: 0.17 nM

Cn1c(=O)n(C2CCC(=O)NC2=O)c2ccc(N3CCC(OC[C@H]4C[C@H](OC5CCN(c6cc(-c7n[nH]c8cnc(OC9(C)CC9)cc78)ncn6)CC5)C4)CC3)cc21 (single isomer, unassigned) [Compound 32, rel-3-[3-methyl-2-oxo-5-(4-{[(1r,3r)-3-[(1-{6-[5-(1-methylcyclopropoxy)-1H-pyrazolo[3,4-c]pyridin-3-yl]pyrimidin-4-yl}piperidin-4-yl)oxy]cyclobutyl]methoxy}piperidin-1-yl)-2,3-dihydro-1H-1,3-benzodiazol-1-yl]piperidine-2,6-dione]
DC50 [3]: 0.33 nM
Dmax (Table 2, HiBit-tagged LRRK2 in HEK293 cells, 24 hours treatment): 51%

Cn1c(=O)n(C2CCC(=O)NC2=O)c2cc(N3CCC(CN4CCN(CC5CCN(c6cc(-c7n[nH]c8ccc(OC9(C)CC9)cc78)ncn6)CC5)CC4)CC3)ccc21 (centres unmarked) [Compound 16, 3-{3-methyl-6-[4-({4-[(1-{6-[5-(1-methylcyclopropoxy)-1H-indazol-3-yl]pyrimidin-4-yl}piperidin-4-yl)methyl]piperazin-1-yl}methyl)piperidin-1-yl]-2-oxo-2,3-dihydro-1H-1,3-benzodiazol-1-yl}piperidine-2,6-dione]
DC50 [3]: ≥ 1000 nM
